“Also recorded” adds a separate entry of the source. Where two headings read alike, the source gives them in different places. Marks after values point to notes of the source that are not given here.
Experiments:
pregnant rabbits = conditions: female, rabbit, in vivo, po
[1] = phase I two-part drug-drug interaction study, plasma pharmacokinetics (Example 1); format: in vivo, human; conditions: for Cmax / Tmax / AUC from 0 to 24 h / AUC(0-inf) / AUC(0-t) / half-life: male, human, plasma, oral; for Tmax: read-out: Tmax, median (range)
Description: The secondary objective was to provide additional information on the safety and tolerability of this dose regimen in healthy males.
This was a single center, non-randomized, DDI study in 35 (Part 1) and 38 (Part 2) healthy males. The key inclusion criterion was males aged 18 to 55 years (inclusive). […] In Part 2, co-administration with omeprazole was studied. The study design is illustrated in FIG. 1.
At least a 2-to 8-day washout occurred between each period to account for a minimum of 5 half-lives of the active moieties dosed in the preceding period.
Blood samples were collected into 6 mL K,EDTA tubes and were processed within 30 minutes of collection. The resultant plasma was then frozen within 90 minutes of collection and stored at […] until shipment to the bioanalytical laboratory.
For each comparison, PK parameters were natural log transformed and analyzed using mixed effect modeling with treatment included as a fixed effect and subject as a random effect. Adjusted geometric mean ratios (GMRs) and corresponding 90% CIs were calculated.

[2] = 200 mg belumosudil single dose + itraconazole
[3] = 200 mg belumosudil single dose + rabeprazole
[4] = 200 mg belumosudil single dose + rifampicin
[5] = 200 mg belumosudil single dose alone
[6] = coadministration of rabeprazole

## CC(C)NC(=O)COc1cccc(-c2nc(Nc3ccc4[nH]ncc4c3)c3ccccc3n2)c1 [Belumosudil, 2-{3-[4-(1H-indazol-5-ylamino)-2-quinazolinyl]phenoxy}-N-(propan-2-yl) acetamide]
Pregnant rabbits
  doses with embryo-fetal effects: ≥ 50 mg/kg/day
  doses with maternal toxicity (body weight loss and mortality): ≥ 125 mg/kg/day
[1]; [2]
  CL/F, arithmetic mean (SD): 318 (117) ^b mL/min
  CL/F, geometric mean (geometric CV %): 298 (38.1) ^b; mL/min
  Tmax: 3 h
[1]; [3]
  CL/F, arithmetic mean (SD): 2480 (2410) ^d mL/min
  CL/F, geometric mean (geometric CV %): 1980 (65.8) ^d; mL/min
[1]; [4]
  CL/F, arithmetic mean (SD): 1400 (450) ^c mL/min
  CL/F, geometric mean (geometric CV %): 1330 (34.5) ^c; mL/min
[1]; [5]
  CL/F, arithmetic mean (SD): 385 (116) ^a mL/min
  CL/F, geometric mean (geometric CV %): 367 (33.3) ^a; mL/min
[1]; coadministration of itraconazole
  change in belumosudil exposure: no clinically meaningful effect; also recorded: No clinically relevant change
[1]; coadministration of omeprazole
  decrease in AUC0-24 vs belumosudil alone: 53%
  decrease in AUC vs belumosudil alone: 47%
  decrease in Cmax (first dose) vs belumosudil alone: 68%
[1]; [6]
  decrease in AUC vs belumosudil alone: 80%
  decrease in AUCinf vs belumosudil alone: ~80%
  decrease in AUClast vs belumosudil alone: ~82%
[1]; coadministration of rifampicin
  decrease in AUCinf vs belumosudil alone: ~72%
  decrease in AUClast vs belumosudil alone: ~72%
[1]; coadministration of rifampin
  decrease in AUC vs belumosudil alone: 72%
[1]; 200 mg belumosudil BID + omeprazole, first dose, read-out: Cmax, arithmetic mean (SD)
  Cmax: 893 ng/mL
[1]; 200 mg belumosudil BID + omeprazole, first dose, read-out: Cmax, geometric mean (geometric CV %)
  Cmax: 575 ng/mL
[1]; 200 mg belumosudil BID + omeprazole, first dose
  Tmax: 4 h
[1]; 200 mg belumosudil BID + omeprazole, second dose, read-out: Cmax, arithmetic mean (SD)
  Cmax: 1050 ng/mL
[1]; 200 mg belumosudil BID + omeprazole, second dose, read-out: Cmax, geometric mean (geometric CV %)
  Cmax: 903 ng/mL
[1]; 200 mg belumosudil BID + omeprazole, second dose
  Tmax: 17 h
[1]; 200 mg belumosudil BID + omeprazole, read-out: AUC0-24, arithmetic mean (SD)
  AUC from 0 to 24 h: 9100 ng·h/mL
[1]; 200 mg belumosudil BID + omeprazole, read-out: AUC0-24, geometric mean (geometric CV %)
  AUC from 0 to 24 h: 7970 ng·h/mL
[1]; 200 mg belumosudil BID + omeprazole, read-out: AUCinf, arithmetic mean (SD)
  AUC(0-inf): 11200 ng·h/mL
[1]; 200 mg belumosudil BID + omeprazole, read-out: AUCinf, geometric mean (geometric CV %)
  AUC(0-inf): 9880 ng·h/mL
[1]; 200 mg belumosudil BID + omeprazole, read-out: AUClast, arithmetic mean (SD)
  AUC(0-t): 10900 ng·h/mL
[1]; 200 mg belumosudil BID + omeprazole, read-out: AUClast, geometric mean (geometric CV %)
  AUC(0-t): 9680 ng·h/mL
[1]; 200 mg belumosudil BID + omeprazole, read-out: t1/2, arithmetic mean (SD) (converted)
  half-life: 393 min
[1]; 200 mg belumosudil BID + omeprazole, read-out: t1/2, geometric mean (geometric CV %) (converted)
  half-life: 370 min
[1]; 200 mg belumosudil single dose + itraconazole, read-out: AUC0-24, arithmetic mean (SD)
  AUC from 0 to 24 h: 11000 ng·h/mL
[1]; 200 mg belumosudil single dose + itraconazole, read-out: AUC0-24, geometric mean (geometric CV %)
  AUC from 0 to 24 h: 10400 ng·h/mL
[1]; 200 mg belumosudil single dose + itraconazole, read-out: AUCinf, arithmetic mean (SD)
  AUC(0-inf): 11900 ng·h/mL
[1]; 200 mg belumosudil single dose + itraconazole, read-out: AUCinf, geometric mean (geometric CV %)
  AUC(0-inf): 11200 ng·h/mL
[1]; 200 mg belumosudil single dose + itraconazole, read-out: AUClast, arithmetic mean (SD)
  AUC(0-t): 11600 ng·h/mL
[1]; 200 mg belumosudil single dose + itraconazole, read-out: AUClast, geometric mean (geometric CV %)
  AUC(0-t): 10900 ng·h/mL
[1]; 200 mg belumosudil single dose + itraconazole, read-out: Cmax, arithmetic mean (SD)
  Cmax: 2230 ng/mL
[1]; 200 mg belumosudil single dose + itraconazole, read-out: Cmax, geometric mean (geometric CV %)
  Cmax: 2130 ng/mL
[1]; 200 mg belumosudil single dose + itraconazole, read-out: t1/2, arithmetic mean (SD) (converted)
  half-life: 527 min
[1]; 200 mg belumosudil single dose + itraconazole, read-out: t1/2, geometric mean (geometric CV %) (converted)
  half-life: 496 min
[1]; 200 mg belumosudil single dose + rabeprazole, read-out: AUC0-24, arithmetic mean (SD)
  AUC from 0 to 24 h: 1730 ng·h/mL
[1]; 200 mg belumosudil single dose + rabeprazole, read-out: AUC0-24, geometric mean (geometric CV %)
  AUC from 0 to 24 h: 1510 ng·h/mL
[1]; 200 mg belumosudil single dose + rabeprazole, read-out: AUCinf, arithmetic mean (SD)
  AUC(0-inf): 1940 ng·h/mL
[1]; 200 mg belumosudil single dose + rabeprazole, read-out: AUCinf, geometric mean (geometric CV %)
  AUC(0-inf): 1680 ng·h/mL
[1]; 200 mg belumosudil single dose + rabeprazole, read-out: AUClast, arithmetic mean (SD)
  AUC(0-t): 1850 ng·h/mL
[1]; 200 mg belumosudil single dose + rabeprazole, read-out: AUClast, geometric mean (geometric CV %)
  AUC(0-t): 1580 ng·h/mL
[1]; 200 mg belumosudil single dose + rabeprazole, read-out: Cmax, arithmetic mean (SD)
  Cmax: 262 ng/mL

Source: US20240350493A1 (Kadmon Corporation, LLC, priority 2022, published 2024)
